Experimental data reported in patent US10837058B2, “Markers of papillary and reticular fibroblasts and uses thereof” (CHANEL PARFUMS BEAUTE, priority 2011, dated 2020).

Experiments:
Format in all cases: cell-based, human
[1] = test system: reticular or papillary fibroblasts; assay: Compound screening on reticular or papillary fibroblasts, qPCR of 3 papillary and 3 reticular markers; details: high=0.01% v/v, low=0.0001% v/v, 24 hrs; CCRL1, NTN1, PDPN, MGP, PPP1R14A, TGM2; FIG. 2
Procedure: The fibroblasts were isolated and cultured as described above (example 1).
12000 reticular or papillary fibroblasts were seeded in 12 well culture plates (Costar). The fibroblasts were cultured for 5 days until 90% of the surface area was covered. Two different concentrations (low/high) of compounds were applied for 24 hrs. Pictures were taken before and after application. No differences in morphology and were observed (data not shown). RNA was isolated as described in example 1.
qPCR analysis was performed using 3 papillary (CCRL1, NTN1 and PDPN) and 3 reticular (MGP, PPP1R14A and TGM2) markers, according to example 1. The expression was normalized using two reference genes (SND1 and EI24). The effect of verbascoside was determined by comparing the expression of the genes to the expression of vehicle treated fibroblasts.

papillary fibroblasts [2] = assay: TGF-β1 treatment of monolayer papillary fibroblasts, IHC staining and morphology; details: TGF-β1 2 or 10 ng/mL, 2 or 4 days
Procedure: For IHC on monolayer cell cultures, fibroblasts were grown on glass slides until nearly confluent, washed in PBS and fixed with 4% formaldehyde. Staining was visualized by a secondary antibody with a fluorescent dye (Cy3). DAPI was used as counterstain.
(§1) Monolayer cultures of papillary fibroblasts were treated with TGF-β1, 2 or 10 ng/mL, for 2 or 4 days. Then the expression of the reticular and papillary markers was measured by qPCR and by IHC staining on the cultures.

papillary fibroblasts [3] = assay: TGF-β1 treatment of monolayer papillary fibroblasts, marker expression by qPCR; details: TGF-β1 2 or 10 ng/mL, 2 or 4 days
Procedure: cDNA was generated of 1 μg RNA using the iScript cDNA synthesis kit (BioRad, Veenendaal, The Netherlands) according to manufacturer's instructions. PCR reactions were based on the SYBR Green method (BioRad) and consisted of 2× Sybr Green Mastermix, 1 ng cDNA template and 500 nM of forward and reverse primers. The PCRs were run on the MyIQ system (BioRad). The PCR cycles were: 3,5 minutes at 95 C to activate the polymerase, 35 cycles of 20 sec 95 C and 40 sec 60 C, followed by the generation of a melt curve. Primers were checked before on dilution series of normal fibroblasts cDNA. References genes were analyzed with the GeNorm method (20). Expression analysis was performed with the BioRad Software (iQ5) and was based on the delta delta Ct method with the reference genes that were most stably expressed in the GeNorm analysis.
as §1

Compound	effect on reticular/papillary marker gene signature (qPCR, vs vehicle treated fibroblasts) [1]	myofibroblast differentiation: a-SMA expression (papillary fibroblasts [2])	myofibroblast differentiation: morphological changes (papillary fibroblasts [2])	papillary marker PDPN by IHC staining (papillary fibroblasts [2])	reticular marker TGM2 by IHC staining (papillary fibroblasts [2])	differentiation of papillary fibroblasts as measured by qPCR (papillary fibroblasts [3]; monolayer cell cultures)	expression of papillary markers (qPCR) (papillary fibroblasts [3]; data not shown)	expression of reticular markers (qPCR) (papillary fibroblasts [3]; data not shown)
C[C@@H]1O[C@@H](O[C@@H]2[C@@H](O)[C@H](OCCc3ccc(O)c(O)c3)O[C@H](CO)[C@H]2OC(=O)/C=C/c2ccc(O)c(O)c2)[C@H](O)[C@H](O)[C@H]1O [Verbascoside]	able to alter the reticular signature into a papillary signature	–	–	–	–	–	–	–
TGF-β1: TGF-β1, can induce differentiation of fibroblasts to myofibroblasts	–	increased a-SMA expression	increase in cell size	loss of papillary marker PDPN	gain of reticular marker TGM2	caused differentiation to reticular fibroblasts	decreased	increased
